# What was measured:
# Poa annua (POAAN) = test: Biological Example 4B (not-previously-formulated compounds) post-emergence herbicidal activity on grassy weeds; assay type: in vivo; conditions: 14 DAA, technical compound in IF50 + Adigor, mean of two
# Method: (§1) Seeds of a variety of test species are sown in standard soil in pots. After cultivation for 14 days under controlled conditions in a glasshouse (at 22/16°C., day/night; 16 hours light; 65% humidity), the plants are sprayed with an aqueous spray solution derived from the formulation of the technical active ingredient dissolved in acetone plus IF50 containing
# (§2) 10.56 wt % Emulsogen™EL (castor oil ethoxylate, CAS Registry number 61791-12-6)
# (§3) 42.22 wt % N-Methyl pyrrolidone
# (§4) 42.22 wt % dipropylene glycol monoethyl ether
# (§5) at a 1:20 ratio of (technical active ingredient:IF50). The adjuvant Adigor™(an adjuvant containing inter alia methylated rapeseed oil, e.g. available from Syngenta) is added to form a 0.5% v/v solution. The test plants are then grown on under controlled conditions in the glasshouse (at 22/16°C., day/night; 16 hours light; 65% humidity) and are watered twice daily. After 14 days the test is evaluated (100%=total damage to plant; 0%=no damage to plant).
# (§6) […] Herbicidal activity (phytotoxicity) is evaluated visually, and an assessed percentage phytotoxicity score is given for each herbicidal application on each plant species (with 100%=total damage to plant; 0%=no damage to plant). Two repetitions are made for each experiment, and the mean herbicidal activity (phytotoxicity) data is reported.
# (§7) Test plants: Avena fatua (AVEFA), Lolium multiflorum (LOLMU), Setaria viridis (SETVI), Poa annua (POAAN), Alopecurus myosuroides (ALOMY). All five of these are grassy monocotyledonous weeds.
# Setaria viridis (SETVI) = test: as above; assay type: in vivo; conditions: 14 DAA, technical compound in IF50 + Adigor, mean of two
# Method: as §1, §2, §3, §4, §5, §6, §7
# Avena fatua (AVEFA) = test: as above; assay type: in vivo; conditions: 14 DAA, technical compound in IF50 + Adigor, mean of two
# Method: as §1, §2, §3, §4, §5, §6, §7
# [1] = system: Alopecurus myosuroides (ALOMY); test: as above; assay type: in vivo; conditions: 14 DAA, technical compound in IF50 + Adigor, mean of two
# Method: as §1, §2, §3, §4, §5, §6, §7
# Winter Barley “Suzuka” = test: Biological Example 4B post-emergence phytotoxicity on cereal crops; assay type: in vivo; conditions: 14 DAA, technical compound in IF50 + Adigor, mean of two
# Method: as §1, §2, §3, §4, §5, §6
# [2] = system: Spring Barley “Harrington”; test: as above; assay type: in vivo; conditions: 15 g/ha, cloquintocet-mexyl 50 g/ha, 14 DAA, technical compound in IF50 + Adigor, mean of two
# [3] = Biological Example 5B “RASP” soil persistence method; conditions: 18 Acres soil
# Method: Field soil (of the type “18 Acres”, as described in Biological Example 5A and Table 5.1 above) is sieved to 2 mm. The sieved soil is wetted up with distilled water, mixing thoroughly until it reaches “field capacity”. […] Usually, the moisture content of the soil used is about 25%.
# For each compound tested, 6×50 mL polypropylene centrifuge tubes containing 10 g±0.5 g of soil at field capacity are used. Each tube lid has a 2 mm hole to allow for air circulation during the incubation period.
# 4×10 microliters of treatment solutions of the compounds to be tested are applied to the surface of the soil in groups of 6 tubes. 4×10 microliter drops are also dispensed into the treatment check vials and these are diluted to 1 mL with acetonitrile; at this point additional samples can be prepared for HPLC method development if required.
# Two of the tubes containing the treated soil are capped and immediately frozen as T0 (day zero) samples. The remaining four samples are capped with lids containing a 2 mm hole drilled into the lid and incubated in controlled environment cabinets for the correct time interval at 20°C., 80% relative humidity.
# After both one and four weeks incubation, two tubes from each treatment are removed from the cabinets, the lids are replaced for ones lacking ventilation holes and the tubes are frozen. When the samples are ready for analysis, a zero time, 1 week and 4 week sample for each compound is removed from the freezer and allowed to thaw. Immediately after thawing, 40 mL of extraction solution is added to the samples.
# Samples are extracted using a mixture such as 80:20 (v/v) acetonitrile/1 M ammonium hydroxide solution. […]
# All samples from the test are analysed by UPLC-MS. […]
# For each compound, the molecular ion giving the best sensitivity is chosen and a single ion monitoring method is set up. The method development samples are re-analysed using the selected ion monitoring methods to check that suitable sensitivity is obtained.
# Degradation kinetics, and an estimated half-life (T½) of the compound in the soil, can then be calculated using simple first order assumptions.
# [4] = 30 g/ha, cloquintocet-mexyl 50 g/ha
# [5] = 60 g/ha, cloquintocet-mexyl 0 g/ha
# [6] = 60 g/ha, cloquintocet-mexyl 50 g/ha
# [7] = 15 g/ha, cloquintocet-mexyl 50 g/ha
Structure (SMILES),POAAN % phytotoxicity (Poa annua (POAAN); [4]),POAAN % phytotoxicity (Poa annua (POAAN); [5]),POAAN % phytotoxicity (Poa annua (POAAN); [6]),SETVI % phytotoxicity (Setaria viridis (SETVI); [4]),SETVI % phytotoxicity (Setaria viridis (SETVI); [5]),SETVI % phytotoxicity (Setaria viridis (SETVI); [6]),AVEFA % phytotoxicity (Avena fatua (AVEFA); [4]),AVEFA % phytotoxicity (Avena fatua (AVEFA); [5]),AVEFA % phytotoxicity (Avena fatua (AVEFA); [6]),"ALOMY % phytotoxicity [1, 4]","ALOMY % phytotoxicity [1, 5]","ALOMY % phytotoxicity [1, 6]",Winter Barley “Suzuka” phytotoxicity (%) (Winter Barley “Suzuka”; [4]),Winter Barley “Suzuka” phytotoxicity (%) (Winter Barley “Suzuka”; [5]),Winter Barley “Suzuka” phytotoxicity (%) (Winter Barley “Suzuka”; [6]),also measured
CC#Cc1cc(C)c(C2=C(O)CC(Cc3ccc(C)cn3)C2=O)c(C)c1 (stereo not drawn) [Compound A-8],65%,80%,75%,55%,75%,75%,45%,97%,95%,63%,94%,94%,9%,73%,60%,–
CC#Cc1cc(C)c(C2=C(O)CC(Cc3ccc(F)cn3)C2=O)c(C)c1 (stereo not drawn) [Compound A-11],70%,75%,75%,89%,98%,97%,50%,93%,88%,73%,85%,85%,8%,68%,33%,–
CC#Cc1cc(C)c(C2=C(O)CC(Cc3ccc(C#N)cn3)C2=O)c(C)c1 (stereo not drawn) [Compound A-14],83%,85%,85%,99%,100%,100%,38%,83%,80%,78%,97%,97%,45%,97%,93%,–
CC#Cc1cc(C)c(C2C(=O)CC(Cc3ccn(C)n3)C2=O)c(C)c1 (stereo not drawn) [Compound A-19],80%,92%,92%,100%,100%,100%,90%,99%,99%,100%,100%,100%,55%,97%,95%,"POAAN % phytotoxicity (Poa annua (POAAN); [7]): 75%; SETVI % phytotoxicity (Setaria viridis (SETVI); [7]): 99%; AVEFA % phytotoxicity (Avena fatua (AVEFA); [7]): 88%; ALOMY % phytotoxicity [1, 7]: 99%; Winter Barley “Suzuka” phytotoxicity (%) (Winter Barley “Suzuka”; [7]): 3%; Spring Barley “Harrington” phytotoxicity (%) [2]: 3%; RASP Test: % of compound remaining at 0 weeks ([3]; 0 weeks): 80%; RASP Test: % of compound remaining at 1 week ([3]; 1 week incubation at 20°C): 79%; RASP Test: % of compound remaining at 4 weeks ([3]; 4 weeks incubation at 20°C): 80%"
